Where two headings read alike, the source gives them in different places. Bridges are numbered along the chain shown (N, C = ends). Where no end group is shown, it is not given here.
What was measured:
chymotrypsin = chymotrypsin (Bos taurus, UniProt P00766); conditions: 360 μL bacteriocin (256 μg/mL) + 40 μL chymotrypsin, final 1 mg/mL; pH 7.8; 25°C; 3 h; read-out activity against L. monocytogenes 54002; triplicate
Protocol: (§1) After 3 h of incubation at appropriate the temperature (Table 3), the activity against indicator strain (L. monocytogenes 54002) was determined. Non-enzymic treatment was used as control test.

papain = papain (Carica papaya, UniProt P00784); conditions: 360 μL bacteriocin (256 μg/mL) + 40 μL papain, final 1 mg/mL; pH 6.5; 37°C; 3 h; read-out activity against L. monocytogenes 54002; triplicate
Sequence of papain (P00784 134-345): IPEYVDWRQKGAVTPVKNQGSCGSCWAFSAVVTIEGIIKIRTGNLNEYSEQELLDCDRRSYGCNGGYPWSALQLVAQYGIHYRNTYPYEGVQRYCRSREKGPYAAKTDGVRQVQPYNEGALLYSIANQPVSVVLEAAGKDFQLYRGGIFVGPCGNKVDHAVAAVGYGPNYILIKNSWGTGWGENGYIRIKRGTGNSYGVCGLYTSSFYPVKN
Protocol: as §1

pepsin = pepsin (Sus scrofa, UniProt P00791); conditions: 360 μL bacteriocin (256 μg/mL) + 40 μL pepsin, final 1 mg/mL; pH 3; 37°C; 3 h; read-out activity against L. monocytogenes 54002; triplicate
Sequence of pepsin (P00791 60-385): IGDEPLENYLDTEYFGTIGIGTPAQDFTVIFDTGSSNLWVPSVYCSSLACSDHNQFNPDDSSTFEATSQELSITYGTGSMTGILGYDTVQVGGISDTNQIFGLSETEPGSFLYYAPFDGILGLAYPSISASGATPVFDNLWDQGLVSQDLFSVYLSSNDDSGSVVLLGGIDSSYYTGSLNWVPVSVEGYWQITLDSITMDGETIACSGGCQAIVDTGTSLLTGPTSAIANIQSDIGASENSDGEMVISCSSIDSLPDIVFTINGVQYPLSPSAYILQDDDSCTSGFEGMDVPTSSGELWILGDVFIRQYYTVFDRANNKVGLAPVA
Protocol: as §1

proteinase K = proteinase K (Parengyodontium album, UniProt P06873); conditions: 360 μL bacteriocin (256 μg/mL) + 40 μL proteinase K, final 1 mg/mL; pH 7.5; 37°C; 3 h; read-out activity against L. monocytogenes 54002; triplicate
Sequence of proteinase K (P06873 106-384): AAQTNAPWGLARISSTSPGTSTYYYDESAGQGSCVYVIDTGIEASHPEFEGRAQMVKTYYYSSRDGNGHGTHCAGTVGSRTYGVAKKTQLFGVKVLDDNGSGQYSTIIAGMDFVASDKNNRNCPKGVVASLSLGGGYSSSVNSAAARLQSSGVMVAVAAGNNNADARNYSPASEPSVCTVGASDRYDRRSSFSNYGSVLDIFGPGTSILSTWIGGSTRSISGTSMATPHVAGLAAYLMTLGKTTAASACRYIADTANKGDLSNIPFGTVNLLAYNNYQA
Protocol: as §1

[1] = pH stability, remaining antibacterial activity; assay type: physicochemical; conditions: 256 μg/mL, 3 h at 37°C, readjusted to pH 6.0
L. monocytogenes 54002 [2] = assay: Mode of action: viable cells and optical density; assay type: cell-based, Listeria monocytogenes; conditions: 256 μg/mL bacteriocin, about 10^8 CFU/mL in 20 mM sodium phosphate buffer, 37°C, after 3 h
Protocol: Cells were harvested and resuspended in sterile 20 mM sodium phosphate buffer to give 10^8 CFU/mL approximately. Bacteriocin was added for final concentration of 256 μg/mL, while a sample without added bacteriocin was used as control. All samples were incubated for 5 h at 37°C. The optical density (600 nm) and viable cells were monitored every 1 h ([Deraz et al., 2007]).

L. monocytogenes 54002 [3] = assay: Membrane permeabilization, SYTOX Green stain; assay type: cell-based, Listeria monocytogenes
Protocol: The fluorescence was detected using RT-PCR instrument combined with 5 μM SYTOX^TM Green Stain (Invitrogen, United States). Cells were resuspended in sterile 20 mM sodium phosphate buffer to give 10^6 CFU/mL approximately. Bacteriocin was added at final concentration of 256 and 128 μg/mL, respectively, while a sample with added sodium phosphate buffer was used as control. Meanwhile, the treated cells were examined using confocal laser scanning microscopy (CLSM; Leica, United States) combined with 5 μM SYTOX^TM Green Dead Cell Stain.

[4] = 1% (V/V) Tween 20, Tween 80, urea, and EDTA at 37°C for 3 h
Protocol: After 3 h of incubation at 37°C, the remaining activity against indicator was determined and untreated samples were used as a control test.

VIADKYYGNGVSCGKHTCTVDWGEAFSCSVSHLANFGHGKC (disulfide 13-18; cysteines drawn unpaired) [plantaricin LPL-1]
Diameter (mm) of inhibition zone after enzyme treatment (chymotrypsin): 0 mm | Diameter (mm) of inhibition zone after enzyme treatment (papain): 0 mm | Diameter (mm) of inhibition zone after enzyme treatment (pepsin): 0 mm | Diameter (mm) of inhibition zone after enzyme treatment (proteinase K): 0 mm | Remaining antibacterial activity (%) ([1]; pH 10, pH set with HCl/NaOH, activity against indicator, Figure 5A): 25% | Activity kept ([1]; pH between 2.0 and 7.0): 90% | Decrease of optical density (600 nm) (L. monocytogenes 54002 [2]): 0.69 units | Decrease of the number of viable cells (L. monocytogenes 54002 [2]): 2.11 Log10 cfu | Amounts of dead cells (CLSM) (L. monocytogenes 54002 [3]; 256 μg/mL for 10, 20 and 30 min, 5 μM SYTOX Green Dead Cell Stain, confocal laser scanning microscopy): increased gradually | Fluorescence intensity (SYTOX Green) (L. monocytogenes 54002 [3]; 128 and 256 μg/mL, about 10^6 CFU/mL, 5 μM SYTOX Green, RT-PCR instrument, control remained stable): increased | Thermal stability in words (60, 80, and 100°C for 15 and 30 min): remained stable | Remaining antibacterial activity (%) (121°C, 20 min, 256 μg/mL, autoclave, Figure 5B): 58.82% | Stability toward surfactants in words [4]: remained stable
